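Briefly, cells in 96-well plates were exposed to five compound concentrations for 48 h, and endpoints were estimated by linear interpolation. GI50 marks 50% less growth. TGI marks complete inhibition of growth.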
What was measured:
Assay in all cases: inhibition of tumour cell growth, NCI panel, 48 h
[1] = test system: 786-0 renal
[2] = test system: A498 renal
[3] = test system: A549 NSCLC
[4] = test system: ACHN renal
[5] = test system: BT-549 breast
[6] = test system: CAKI-1 renal
[7] = test system: CCRF-CEM leukemia
[8] = test system: COLO 205 colon
[9] = test system: DU-145 prostate
[10] = test system: EKVX NSCLC
[11] = test system: HCC-2998 colon
[12] = test system: HCT-116 colon
[13] = test system: HCT-15 colon
[14] = test system: HL-60(TB) leukemia
[15] = test system: HOP-62 NSCLC
[16] = test system: HOP-92 NSCLC
[17] = test system: HS 578T breast
[18] = test system: HT29 colon
[19] = test system: IGROV1 ovarian
[20] = test system: K-562 leukemia
[21] = test system: KM12 colon
[22] = test system: LOX IMVI melanoma
[23] = test system: M14 melanoma
[24] = test system: MALME-3M melanoma
[25] = test system: MCF7 breast
[26] = test system: MDA-MB-231 breast
[27] = test system: MDA-MB-435
[28] = test system: MOLT-4 leukemia
[29] = test system: NCI-H226 lung
[30] = test system: NCI-H23 lung
[31] = test system: NCI-H460 lung
[32] = test system: NCI-H522 lung
[33] = test system: NCI/ADR-RES ovarian
[34] = test system: OVCAR-3 ovarian
[35] = test system: OVCAR-4 ovarian
[36] = test system: OVCAR-5 ovarian
[37] = test system: OVCAR-8 ovarian
[38] = test system: PC-3 prostate
[39] = test system: RPMI-8226 leukemia
[40] = test system: RXF 393 renal
[41] = test system: SF-268 CNS
[42] = test system: SF-295 CNS
[43] = test system: SF-539 CNS
[44] = test system: SK-MEL-2 melanoma
[45] = test system: SK-MEL-28 melanoma
[46] = test system: SK-MEL-5 melanoma
[47] = test system: SK-OV-3 ovarian
[48] = test system: SN12C renal
[49] = test system: SNB-19 CNS
[50] = test system: SNB-75 CNS
[51] = test system: SR leukemia
[52] = test system: SW-620 colon
[53] = test system: T-47D breast
[54] = test system: TK-10 renal
[55] = test system: U251 CNS
[56] = test system: UACC-257 melanoma
[57] = test system: UACC-62 melanoma
[58] = test system: UO-31 renal
[59] = test system: MDA-N

Structure (SMILES): Cn1ccnc1C(=O)/C=C/c1ccc(CC(=O)Nc2ccc(C(F)(F)F)cc2)cc1
- GI50 [1]: 1.81 µM
- TGI [1]: 4.07 µM
- GI50 [2]: 4.17 µM
- TGI [2]: 11.8 µM
- GI50 [3]: 3.82 µM
- TGI [3]: 10.3 µM
- GI50 [4]: 2.95 µM
- TGI [4]: 5.96 µM
- GI50 [5]: 2.56 µM
- TGI [5]: 5.33 µM
- GI50 [6]: 3.54 µM
- TGI [6]: 9.53 µM
- GI50 [7]: 0.658 µM
- TGI [7]: > 16.7 µM
- GI50 [8]: 3.17 µM
- TGI [8]: 6.17 µM
- GI50 [9]: 2.97 µM
- TGI [9]: 6.42 µM
- GI50 [10]: 3.07 µM
- TGI [10]: 8.49 µM
- GI50 [11]: 2.87 µM
- TGI [11]: 5.44 µM
- GI50 [12]: 2.4 µM
- TGI [12]: 4.94 µM
- GI50 [13]: 1.4 µM
- TGI [13]: > 16.7 µM
- GI50 [14]: 1.8 µM
- TGI [14]: 9.82 µM
- GI50 [15]: > 16.7 µM
- TGI [15]: > 16.7 µM
- GI50 [16]: 2.4 µM
- TGI [16]: 5.66 µM
- GI50 [17]: 6.14 µM
- TGI [17]: > 16.7 µM
- GI50 [18]: 3.96 µM
- TGI [18]: 9.02 µM
- GI50 [19]: 4.37 µM
- TGI [19]: 12.9 µM
- GI50 [20]: 0.614 µM
- TGI [20]: > 16.7 µM
- GI50 [21]: 3.23 µM
- TGI [21]: 8.69 µM
- GI50 [22]: 2.18 µM
- TGI [22]: 4.37 µM
- GI50 [23]: 3.72 µM
- TGI [23]: 8.3 µM
- GI50 [24]: 3.95 µM
- TGI [24]: 10.7 µM
- GI50 [25]: 1.02 µM
- TGI [25]: 14.5 µM
- GI50 [26]: 4.02 µM
- TGI [26]: 15.2 µM
- GI50 [27]: 3.88 µM
- TGI [27]: 12.5 µM
- GI50 [28]: 1.17 µM
- TGI [28]: 8.06 µM
- GI50 [29]: 4.19 µM
- TGI [29]: 16 µM
- GI50 [30]: 3.28 µM
- TGI [30]: 6.9 µM
- GI50 [31]: 2.99 µM
- TGI [31]: 9.42 µM
- GI50 [32]: 3.35 µM
- TGI [32]: 6.39 µM
- GI50 [33]: 4.32 µM
- TGI [33]: 10.9 µM
- GI50 [34]: 2.95 µM
- TGI [34]: 6.88 µM
- GI50 [35]: 3.1 µM
- TGI [35]: > 16.7 µM
- GI50 [36]: 2.45 µM
- TGI [36]: 5.21 µM
- GI50 [37]: 4.9 µM
- TGI [37]: > 16.7 µM
- GI50 [38]: 1.01 µM
- TGI [38]: 4.6 µM
- GI50 [39]: 0.869 µM
- TGI [39]: 5.17 µM
- GI50 [40]: 2.72 µM
- TGI [40]: 5.49 µM
- GI50 [41]: 3.03 µM
- TGI [41]: 7.88 µM
- GI50 [42]: 2.56 µM
- TGI [42]: 5.17 µM
- GI50 [43]: 2.21 µM
- TGI [43]: 4.45 µM
- GI50 [44]: 4.95 µM
- TGI [44]: 11.3 µM
- GI50 [45]: 2.92 µM
- TGI [45]: 6.25 µM
- GI50 [46]: 3.83 µM
- TGI [46]: 11.2 µM
- GI50 [47]: 6.6 µM
- TGI [47]: > 16.7 µM
- GI50 [48]: 4.32 µM
- TGI [48]: > 16.7 µM
- GI50 [49]: 2.46 µM
- TGI [49]: 5.09 µM
- GI50 [50]: 2.5 µM
- TGI [50]: 8.01 µM
- GI50 [51]: 0.718 µM
- TGI [51]: 9.94 µM
- GI50 [52]: 4.17 µM
- TGI [52]: > 16.7 µM
- GI50 [53]: 5.95 µM
- TGI [53]: > 16.7 µM
- GI50 [54]: 5 µM
- TGI [54]: 15.3 µM
- GI50 [55]: 1.89 µM
- TGI [55]: 3.93 µM
- GI50 [56]: 8.03 µM
- TGI [56]: > 16.7 µM
- GI50 [57]: 3.16 µM
- TGI [57]: 7.65 µM
- GI50 [58]: 2.51 µM
- TGI [58]: 4.76 µM

Structure (SMILES): CCOP(=O)(CN=C(c1ccccc1)c1ccccc1)OCC
- TGI [2]: > 100 µM
- TGI [3]: > 100 µM
- TGI [4]: > 100 µM
- TGI [6]: > 100 µM
- TGI [7]: > 100 µM
- TGI [8]: > 100 µM
- TGI [9]: > 100 µM
- TGI [11]: > 100 µM
- TGI [12]: > 100 µM
- TGI [13]: > 100 µM
- TGI [14]: > 100 µM
- TGI [15]: > 100 µM
- TGI [16]: > 100 µM
- TGI [17]: > 100 µM
- TGI [18]: > 100 µM
- TGI [19]: > 100 µM
- TGI [20]: > 100 µM
- TGI [22]: > 100 µM
- TGI [23]: > 100 µM
- TGI [25]: > 100 µM
- TGI [26]: > 100 µM
- TGI [27]: > 100 µM
- TGI [59]: > 100 µM
- TGI [28]: > 100 µM
- TGI [29]: > 100 µM
- TGI [30]: > 100 µM
- TGI [31]: > 100 µM
- TGI [32]: > 100 µM
- TGI [33]: > 100 µM
- TGI [34]: > 100 µM
- TGI [35]: > 100 µM
- TGI [36]: > 100 µM
- TGI [37]: > 100 µM
- TGI [38]: > 100 µM
- TGI [39]: > 100 µM
- TGI [42]: > 100 µM
- TGI [44]: > 100 µM
- TGI [45]: > 100 µM
- TGI [46]: > 100 µM
- TGI [47]: > 100 µM
- TGI [48]: > 100 µM
- TGI [49]: > 100 µM
- TGI [50]: > 100 µM
- TGI [51]: > 100 µM
- TGI [52]: > 100 µM
- TGI [53]: > 100 µM
- TGI [54]: > 100 µM
- TGI [55]: > 100 µM
- TGI [56]: > 100 µM
- TGI [58]: > 100 µM

Structure (SMILES): CCC(/C=C/c1ccccc1)=N\Nc1ccc(Cl)c(Cl)c1
- TGI [1]: > 100 µM
- TGI [3]: > 100 µM
- TGI [4]: 76.9 µM
- TGI [6]: > 100 µM
- TGI [7]: > 100 µM
- TGI [8]: > 100 µM
- TGI [9]: > 100 µM
- TGI [10]: > 100 µM
- TGI [11]: 65 µM
- TGI [12]: > 100 µM
- TGI [13]: > 100 µM
- TGI [14]: 72.5 µM
- TGI [15]: > 100 µM
- TGI [16]: 58.2 µM
- TGI [17]: > 100 µM
- TGI [18]: > 100 µM
- TGI [19]: 37.5 µM
- TGI [20]: > 100 µM
- TGI [21]: > 100 µM
- TGI [22]: > 100 µM
- TGI [23]: > 100 µM
- TGI [24]: 78.9 µM
- TGI [25]: > 100 µM
- TGI [26]: 55.7 µM
- TGI [27]: > 100 µM
- TGI [59]: > 100 µM
- TGI [28]: > 100 µM
- TGI [29]: 72.7 µM
- TGI [30]: > 100 µM
- TGI [31]: > 100 µM
- TGI [32]: 46.1 µM
- TGI [33]: > 100 µM
- TGI [34]: > 100 µM
- TGI [36]: > 100 µM
- TGI [37]: 39.6 µM
- TGI [38]: > 100 µM
- TGI [39]: 50.1 µM
- TGI [40]: 58.4 µM
- TGI [41]: > 100 µM
- TGI [42]: > 100 µM
- TGI [43]: 66.1 µM
- TGI [44]: 40.9 µM
- TGI [45]: > 100 µM
- TGI [46]: 30 µM
- TGI [47]: > 100 µM
- TGI [48]: 74.8 µM
- TGI [49]: > 100 µM
- TGI [50]: > 100 µM
- TGI [51]: > 100 µM
- TGI [52]: > 100 µM
- TGI [53]: > 100 µM
- TGI [54]: > 100 µM
- TGI [55]: > 100 µM
- TGI [56]: > 100 µM
- TGI [57]: 31.5 µM
- TGI [58]: 57.9 µM

Source: PubChem BioAssay (NCI)
